Earlier results, collected in US12611399B2, “Movement disorders” (Definium Therapeutics US, Inc., priority 2021, dated 2026).

Experiments:
Conditions in all cases: result in words
D2 receptors = D2 receptors (Homo sapiens, UniProt P14416)
[1] = system: serotonin 5-HT1 receptors
D1-3 receptors = system: D1-3 receptors
5-HT transporter (SERT) = 5-HT transporter (SERT) (Homo sapiens, UniProt P31645)
5-HT2A receptor = 5-HT2A receptor (Homo sapiens, UniProt P28223)
Sequence of 5-HT2A receptor (P28223 whole entry): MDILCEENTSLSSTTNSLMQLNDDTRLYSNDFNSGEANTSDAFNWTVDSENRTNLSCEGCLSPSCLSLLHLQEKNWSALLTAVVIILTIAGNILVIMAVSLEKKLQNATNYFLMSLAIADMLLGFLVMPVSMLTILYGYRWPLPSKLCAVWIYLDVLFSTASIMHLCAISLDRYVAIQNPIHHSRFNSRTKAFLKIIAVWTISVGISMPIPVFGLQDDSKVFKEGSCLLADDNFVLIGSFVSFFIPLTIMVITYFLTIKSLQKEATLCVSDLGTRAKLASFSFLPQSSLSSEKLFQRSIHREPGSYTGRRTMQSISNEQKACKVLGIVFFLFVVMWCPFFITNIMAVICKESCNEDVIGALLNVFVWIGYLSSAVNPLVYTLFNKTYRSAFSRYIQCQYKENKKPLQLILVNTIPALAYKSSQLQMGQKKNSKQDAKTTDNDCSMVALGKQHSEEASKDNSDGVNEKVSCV

Sequence of 5-HT transporter (SERT) (P31645 whole entry, species assumed): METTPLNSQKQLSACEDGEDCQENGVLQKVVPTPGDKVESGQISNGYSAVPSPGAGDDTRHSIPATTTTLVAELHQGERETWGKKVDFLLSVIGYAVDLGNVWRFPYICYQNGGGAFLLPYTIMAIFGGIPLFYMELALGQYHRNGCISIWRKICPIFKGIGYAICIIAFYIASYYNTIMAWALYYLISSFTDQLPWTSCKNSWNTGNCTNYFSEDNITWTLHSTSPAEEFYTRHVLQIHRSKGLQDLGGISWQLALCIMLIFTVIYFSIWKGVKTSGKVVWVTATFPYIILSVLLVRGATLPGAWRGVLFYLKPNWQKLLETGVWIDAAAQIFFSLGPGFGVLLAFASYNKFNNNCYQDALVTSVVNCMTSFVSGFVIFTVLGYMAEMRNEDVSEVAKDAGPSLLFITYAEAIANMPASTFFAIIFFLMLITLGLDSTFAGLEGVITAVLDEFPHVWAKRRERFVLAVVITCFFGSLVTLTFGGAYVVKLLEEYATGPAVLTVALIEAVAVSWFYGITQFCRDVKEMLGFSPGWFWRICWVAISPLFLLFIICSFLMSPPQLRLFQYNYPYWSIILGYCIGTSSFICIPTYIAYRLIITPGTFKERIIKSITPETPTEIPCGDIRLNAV
Sequence of D2 receptors (P14416 whole entry): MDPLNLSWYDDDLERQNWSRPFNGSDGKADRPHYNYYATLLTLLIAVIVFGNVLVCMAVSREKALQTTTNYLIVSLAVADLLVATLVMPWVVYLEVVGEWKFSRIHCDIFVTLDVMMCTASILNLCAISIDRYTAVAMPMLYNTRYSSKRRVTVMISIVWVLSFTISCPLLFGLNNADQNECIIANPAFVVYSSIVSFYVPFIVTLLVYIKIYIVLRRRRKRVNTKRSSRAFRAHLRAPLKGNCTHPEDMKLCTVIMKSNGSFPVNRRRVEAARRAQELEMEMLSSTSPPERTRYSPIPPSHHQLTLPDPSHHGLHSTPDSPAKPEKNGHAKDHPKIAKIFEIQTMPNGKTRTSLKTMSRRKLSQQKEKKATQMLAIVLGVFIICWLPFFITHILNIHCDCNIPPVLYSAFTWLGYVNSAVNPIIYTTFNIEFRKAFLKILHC

| SMILES | affinity for D2 receptors (D2 receptors) | agonist potency at serotonin 5-HT1 receptors [1] | stimulation of D1-3 receptors (D1-3 receptors) | interaction with the 5-HT transporter (SERT) (5-HT transporter (SERT)) | stimulation of the 5-HT2A receptor (5-HT2A receptor) |
| --- | --- | --- | --- | --- | --- |
| COc1cc(CCN)cc(OC)c1OC [mescaline] | no affinity | low potency |  |  |  |
| CCN(CC)C(=O)[C@@H]1C=C2c3cccc4[nH]cc(c34)C[C@H]2N(C)C1 [LSD, lysergic acid diethylamide] |  | potent agoinsts | stimulates | does not interact | potently stimulates |
| CN(C)CCc1c[nH]c2cccc(O)c12 [psilocin] |  | potent agoinsts |  | inhibits |  |
